Test results published in patent US20250271426A1, “REDUCTION OF BITTER TASTE OF ACTIVE PHARMACEUTICAL INGREDIENTS AND RELATED ASSAYS AND SCREENING METHODS” (Firmenich Incorporated, priority 2022, published 2025).

target: T1, T2R receptor SEQ ID NO: 1 (S1) (Homo sapiens, UniProt Q9NYW7); experiment: FLIPR calcium assay, cells with promiscuous G protein transfected with bitter receptor cDNA; assay type: cell-based; details: responsive if cellular response of >10% over baseline, Fluo4-AM
T1 construct: expressed in transfected cells; host or cells: cells expressing a promiscuous G protein (e.g., G16g44)
T1 sequence (Q9NYW7 1-299): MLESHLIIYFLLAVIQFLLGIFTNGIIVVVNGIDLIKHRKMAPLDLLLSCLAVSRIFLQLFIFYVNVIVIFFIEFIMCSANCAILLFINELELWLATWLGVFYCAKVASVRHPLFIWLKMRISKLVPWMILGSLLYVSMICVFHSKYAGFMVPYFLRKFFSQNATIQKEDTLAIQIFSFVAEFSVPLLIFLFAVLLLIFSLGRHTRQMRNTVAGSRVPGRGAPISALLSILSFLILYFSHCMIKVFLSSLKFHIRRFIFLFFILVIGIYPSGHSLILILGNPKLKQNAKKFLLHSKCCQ
How it was run: (§1)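 Fluo4-AM calcium imaging on FLIPR, agonist added during recording. Host: G16g44 cells, one receptor cDNA per transfection, 28 h culture. Activity cutoff >10% over baseline.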

Structure (SMILES) | S1 positive response of T2R receptor to API
NC(N)=Nc1nc(CSCCC(N)=NS(N)(=O)=O)cs1 [Famotidine] | + (a “+” to indicate whether a particular T2R receptor showed a positive response to a particular API)
CCOC(=O)[C@H](CCc1ccccc1)N[C@@H](C)C(=O)N1CCC[C@H]1C(=O)O [Enalapril] | + (a “+” to indicate whether a particular T2R receptor showed a positive response to a particular API)
O=C(N[C@H](CO)[C@H](O)c1ccc([N+](=O)[O-])cc1)C(Cl)Cl [Chloramphenicol] | + (a “+” to indicate whether a particular T2R receptor showed a positive response to a particular API)
CC[N+](C)(CC)CCOC(=O)C(O)(c1ccccc1)C1CCCCC1 (stereo not drawn) [Oxyphenonium] | + (a “+” to indicate whether a particular T2R receptor showed a positive response to a particular API)

target: T2, T2R receptor SEQ ID NO: 2 (S2) (Homo sapiens, UniProt Q9NYW2); experiment: as above; assay type: cell-based; details: responsive if cellular response of >10% over baseline, Fluo4-AM
T2 construct: expressed in transfected cells; host or cells: cells expressing a promiscuous G protein (e.g., G16g44)
T2 sequence (Q9NYW2 1-309): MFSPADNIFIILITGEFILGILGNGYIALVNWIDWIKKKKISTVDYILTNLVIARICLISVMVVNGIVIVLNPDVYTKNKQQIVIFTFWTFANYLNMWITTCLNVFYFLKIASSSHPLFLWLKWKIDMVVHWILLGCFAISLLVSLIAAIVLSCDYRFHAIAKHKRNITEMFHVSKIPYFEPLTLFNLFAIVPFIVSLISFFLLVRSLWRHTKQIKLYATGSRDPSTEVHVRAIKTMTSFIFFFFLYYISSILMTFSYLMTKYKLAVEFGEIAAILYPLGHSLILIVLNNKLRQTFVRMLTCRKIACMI
How it was run: as §1

Structure (SMILES) | S2 positive response of T2R receptor to API
NC(N)=Nc1nc(CSCCC(N)=NS(N)(=O)=O)cs1 [Famotidine] | + (a “+” to indicate whether a particular T2R receptor showed a positive response to a particular API)
CCOC(=O)[C@H](CCc1ccccc1)N[C@@H](C)C(=O)N1CCC[C@H]1C(=O)O [Enalapril] | + (a “+” to indicate whether a particular T2R receptor showed a positive response to a particular API)
CCC[C@@H]1C[C@@H](C(=O)N[C@@H]([C@H]2O[C@H](SC)[C@H](O)[C@@H](O)[C@H]2O)[C@H](C)Cl)N(C)C1 [Clinamycin] | + (a “+” to indicate whether a particular T2R receptor showed a positive response to a particular API)
O=C(N[C@H](CO)[C@H](O)c1ccc([N+](=O)[O-])cc1)C(Cl)Cl [Chloramphenicol] | + (a “+” to indicate whether a particular T2R receptor showed a positive response to a particular API)
CC[N+](C)(CC)CCOC(=O)C(O)(c1ccccc1)C1CCCCC1 (stereo not drawn) [Oxyphenonium] | + (a “+” to indicate whether a particular T2R receptor showed a positive response to a particular API)

target: T3, T2R receptor SEQ ID NO: 3 (S3) (Homo sapiens, UniProt Q9NYW0, T156M); experiment: as above; assay type: cell-based; details: responsive if cellular response of >10% over baseline, Fluo4-AM
T3 construct: expressed in transfected cells; host or cells: cells expressing a promiscuous G protein (e.g., G16g44)
T3 sequence (Q9NYW0 1-307 T156M): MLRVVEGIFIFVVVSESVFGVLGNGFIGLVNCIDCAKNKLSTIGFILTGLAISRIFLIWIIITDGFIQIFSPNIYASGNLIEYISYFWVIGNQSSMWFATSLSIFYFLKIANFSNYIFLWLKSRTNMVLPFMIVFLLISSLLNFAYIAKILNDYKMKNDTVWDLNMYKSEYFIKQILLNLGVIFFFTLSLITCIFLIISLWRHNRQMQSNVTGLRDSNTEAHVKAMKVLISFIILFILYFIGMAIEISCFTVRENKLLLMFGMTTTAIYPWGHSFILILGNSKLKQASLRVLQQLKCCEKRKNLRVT
How it was run: as §1

Structure (SMILES) | S3 positive response of T2R receptor to API
NC(N)=Nc1nc(CSCCC(N)=NS(N)(=O)=O)cs1 [Famotidine] | + (a “+” to indicate whether a particular T2R receptor showed a positive response to a particular API)
CCC[C@@H]1C[C@@H](C(=O)N[C@@H]([C@H]2O[C@H](SC)[C@H](O)[C@@H](O)[C@H]2O)[C@H](C)Cl)N(C)C1 [Clinamycin] | + (a “+” to indicate whether a particular T2R receptor showed a positive response to a particular API)
O=C(N[C@H](CO)[C@H](O)c1ccc([N+](=O)[O-])cc1)C(Cl)Cl [Chloramphenicol] | + (a “+” to indicate whether a particular T2R receptor showed a positive response to a particular API)
CC[N+](C)(CC)CCOC(=O)C(O)(c1ccccc1)C1CCCCC1 (stereo not drawn) [Oxyphenonium] | + (a “+” to indicate whether a particular T2R receptor showed a positive response to a particular API)

target: T4, T2R receptor SEQ ID NO: 4 (S4) (Homo sapiens, UniProt Q9NYV8); experiment: as above; assay type: cell-based; details: responsive if cellular response of >10% over baseline, Fluo4-AM
T4 construct: expressed in transfected cells; host or cells: cells expressing a promiscuous G protein (e.g., G16g44)
T4 sequence (Q9NYV8 1-317): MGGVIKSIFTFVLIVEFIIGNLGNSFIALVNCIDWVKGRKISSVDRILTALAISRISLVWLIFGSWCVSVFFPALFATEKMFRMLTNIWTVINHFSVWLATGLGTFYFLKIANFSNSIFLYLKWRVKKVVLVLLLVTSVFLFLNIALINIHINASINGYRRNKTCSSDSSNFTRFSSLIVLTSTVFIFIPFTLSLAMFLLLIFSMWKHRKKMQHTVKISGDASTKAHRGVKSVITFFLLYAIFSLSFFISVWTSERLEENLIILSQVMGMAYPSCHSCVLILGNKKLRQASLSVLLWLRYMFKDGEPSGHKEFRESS
How it was run: as §1

Structure (SMILES) | S4 positive response of T2R receptor to API
CCOC(=O)[C@H](CCc1ccccc1)N[C@@H](C)C(=O)N1CCC[C@H]1C(=O)O [Enalapril] | + (a “+” to indicate whether a particular T2R receptor showed a positive response to a particular API)
CCC[C@@H]1C[C@@H](C(=O)N[C@@H]([C@H]2O[C@H](SC)[C@H](O)[C@@H](O)[C@H]2O)[C@H](C)Cl)N(C)C1 [Clinamycin] | + (a “+” to indicate whether a particular T2R receptor showed a positive response to a particular API)

target: T5, T2R receptor SEQ ID NO: 5 (S5) (Homo sapiens, UniProt P59534); experiment: as above; assay type: cell-based; details: responsive if cellular response of >10% over baseline, Fluo4-AM
T5 construct: expressed in transfected cells; host or cells: cells expressing a promiscuous G protein (e.g., G16g44)
T5 sequence (P59534 18-338): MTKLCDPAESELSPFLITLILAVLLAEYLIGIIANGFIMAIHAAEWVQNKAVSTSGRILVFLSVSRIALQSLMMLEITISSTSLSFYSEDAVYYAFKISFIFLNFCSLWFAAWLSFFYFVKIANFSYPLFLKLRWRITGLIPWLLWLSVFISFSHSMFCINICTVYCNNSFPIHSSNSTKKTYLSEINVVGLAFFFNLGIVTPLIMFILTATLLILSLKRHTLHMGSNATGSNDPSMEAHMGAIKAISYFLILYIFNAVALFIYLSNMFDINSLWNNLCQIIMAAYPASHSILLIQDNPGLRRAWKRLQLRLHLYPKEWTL
How it was run: as §1

Structure (SMILES) | S5 positive response of T2R receptor to API
NC(N)=Nc1nc(CSCCC(N)=NS(N)(=O)=O)cs1 [Famotidine] | + (a “+” to indicate whether a particular T2R receptor showed a positive response to a particular API)
CCOC(=O)[C@H](CCc1ccccc1)N[C@@H](C)C(=O)N1CCC[C@H]1C(=O)O [Enalapril] | + (a “+” to indicate whether a particular T2R receptor showed a positive response to a particular API)
CCC[C@@H]1C[C@@H](C(=O)N[C@@H]([C@H]2O[C@H](SC)[C@H](O)[C@@H](O)[C@H]2O)[C@H](C)Cl)N(C)C1 [Clinamycin] | + (a “+” to indicate whether a particular T2R receptor showed a positive response to a particular API)
O=C(N[C@H](CO)[C@H](O)c1ccc([N+](=O)[O-])cc1)C(Cl)Cl [Chloramphenicol] | + (a “+” to indicate whether a particular T2R receptor showed a positive response to a particular API)
CC[N+](C)(CC)CCOC(=O)C(O)(c1ccccc1)C1CCCCC1 (stereo not drawn) [Oxyphenonium] | + (a “+” to indicate whether a particular T2R receptor showed a positive response to a particular API)

target: T6, T2R receptor SEQ ID NO: 6 (S6) (Homo sapiens, UniProt P59540); experiment: as above; assay type: cell-based; details: responsive if cellular response of >10% over baseline, Fluo4-AM
T6 construct: expressed in transfected cells; host or cells: cells expressing a promiscuous G protein (e.g., G16g44)
T6 sequence (P59540 1-309): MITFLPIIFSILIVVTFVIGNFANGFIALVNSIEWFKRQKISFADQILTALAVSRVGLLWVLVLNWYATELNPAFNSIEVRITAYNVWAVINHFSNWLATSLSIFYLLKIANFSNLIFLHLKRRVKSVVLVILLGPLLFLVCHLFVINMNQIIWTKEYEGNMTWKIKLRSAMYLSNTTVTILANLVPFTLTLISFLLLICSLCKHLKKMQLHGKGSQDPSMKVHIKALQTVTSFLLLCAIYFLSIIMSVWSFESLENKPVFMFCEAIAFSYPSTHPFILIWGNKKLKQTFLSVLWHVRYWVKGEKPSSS
How it was run: as §1

Structure (SMILES) | S6 positive response of T2R receptor to API
NC(N)=Nc1nc(CSCCC(N)=NS(N)(=O)=O)cs1 [Famotidine] | + (a “+” to indicate whether a particular T2R receptor showed a positive response to a particular API)
CCOC(=O)[C@H](CCc1ccccc1)N[C@@H](C)C(=O)N1CCC[C@H]1C(=O)O [Enalapril] | + (a “+” to indicate whether a particular T2R receptor showed a positive response to a particular API)
O=C(N[C@H](CO)[C@H](O)c1ccc([N+](=O)[O-])cc1)C(Cl)Cl [Chloramphenicol] | + (a “+” to indicate whether a particular T2R receptor showed a positive response to a particular API)
CC[N+](C)(CC)CCOC(=O)C(O)(c1ccccc1)C1CCCCC1 (stereo not drawn) [Oxyphenonium] | + (a “+” to indicate whether a particular T2R receptor showed a positive response to a particular API)
